{"source": "paper PMC13376172", "about": "“BromoCatch: a self-labelling tag platform for protein modification and live cell imaging” (Nature Communications, 2026)", "key": {"Brd4-BD2 L387A,M442C": {"target": "Brd4-BD2 L387A,M442C (Homo sapiens, UniProt O60885, L387A/M442C)"}, "[1]": {"target": "T1, Brd4-BD2 L387A,E438C (BromoCatch) (Homo sapiens, UniProt O60885, E438C/L387A)", "assay": "biochemical"}, "[2]": {"target": "T2, Brd4-BD2 L387A,E438C (BromoCatch) (Homo sapiens, UniProt O60885, L387A/E438C)", "T2 construct": "Brd4-BD2 (351–459)", "assay": "intact protein LC-MS covalent adduct; DSF", "type": "binding"}, "[3]": {"target": "T1, Brd4-BD2 L387A,E438C (BromoCatch)", "assay": "competition FP kinetics (kinact/KI); intact protein MS; DSF ΔTm +[…] °C; streptavidin pull-down", "type": "binding", "set-up": "Brd4-BD2", "conditions": "read-out: kinact_KI"}}, "note": "pKi: −log10 of the molar value.", "data": [{"smiles": "C=CC(=O)Nc1ccc(C2=N[C@@H]([C@@H](CC)C(=O)OC)c3nnc(C)n3-c3sc(C)c(C)c32)cc1", "note": "[MR116]", "values": [{"measurement": "intact protein LC-MS covalent adduct; DSF", "setting": "Brd4-BD2 L387A,M442C", "value": "(acrylamide, chloroacetamide, vinyl sulfonamide and epoxide) showed covalent modification of both cysteine-containing mutants"}, {"measurement": "pKi", "setting": "[1]", "value": 8.17}]}, {"smiles": "C=CC(=O)Nc1cccc(C2=N[C@@H]([C@@H](CC)C(=O)OC)c3nnc(C)n3-c3sc(C)c(C)c32)c1", "note": "[MR119]", "values": [{"measurement": "intact protein LC-MS covalent adduct; DSF", "setting": "[2]", "value": "Brd4-BD2^L387A,E438C exhibited excellent reactivity towards both meta and para electrophilic ligands"}]}, {"smiles": "C=CS(=O)(=O)Nc1ccc(C2=N[C@@H]([C@@H](CC)C(=O)OC)c3nnc(C)n3-c3sc(C)c(C)c32)cc1", "note": "[MR121]", "values": [{"measurement": "intact protein LC-MS covalent adduct; DSF", "setting": "[2]", "value": "vinyl sulfonamide (MR121) and acrylamide (MR116) performed as the best combinations, providing the highest percentage of covalent engagement"}]}, {"smiles": "CC[C@@H](C(=O)OC)[C@@H]1N=C(c2cccc(NC(=O)CCl)c2)c2c(sc(C)c2C)-n2c(C)nnc21", "note": "[MR118]", "values": [{"measurement": "intact protein LC-MS covalent adduct; DSF", "setting": "[2]", "value": "the chloroacetamides MR112 and MR118 demonstrated a slight improvement in potency"}]}, {"smiles": "CC[C@@H](C(=O)OC)[C@@H]1N=C(c2ccc(NC(=O)CCl)cc2)c2c(sc(C)c2C)-n2c(C)nnc21", "note": "[MR112]", "values": [{"measurement": "intact protein LC-MS covalent adduct; DSF", "setting": "[2]", "value": "para chloroacetamide (MR112), vinyl sulfonamide (MR121) and acrylamide (MR116) performed as the best combinations"}]}, {"smiles": "C=CC(=O)Nc1ccc(C2=N[C@@H]([C@@H](CC)C(=O)NCCOCCOCCOCCOCCNC(=O)CCCC[C@@H]3SC[C@@H]4NC(=O)N[C@@H]43)c3nnc(C)n3-c3sc(C)c(C)c32)cc1", "note": "[MR169]", "values": [{"measurement": "kinact/KI", "setting": "[3]", "value": 37000, "unit": "M⁻¹ s⁻¹"}]}]}
